Test results as given in paper PMC9558053, “Development of a novel high-throughput screen for the identification of new inhibitors of protein S-acylation” (The Journal of Biological Chemistry, 2022).

Biological target: T1, human zDHHC3 (Homo sapiens, UniProt Q9NYG2)
T1 construct: expressed in transfected cells; host or cells: HEK293T
T1 sequence (Q9NYG2 1-299): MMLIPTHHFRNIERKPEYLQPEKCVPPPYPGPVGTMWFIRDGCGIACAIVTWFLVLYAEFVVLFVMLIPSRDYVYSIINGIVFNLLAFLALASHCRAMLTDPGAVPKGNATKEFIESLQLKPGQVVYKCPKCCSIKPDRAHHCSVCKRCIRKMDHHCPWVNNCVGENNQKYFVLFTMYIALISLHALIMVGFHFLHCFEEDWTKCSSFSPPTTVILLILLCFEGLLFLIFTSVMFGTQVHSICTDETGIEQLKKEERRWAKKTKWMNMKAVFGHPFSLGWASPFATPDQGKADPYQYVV
Test: PSD95-mCHERRY S-acylation in HEK293T cells co-expressing zDHHC3
Format: cell-based
Conditions: 25 μM
Description: PSD95 (postsynaptic density protein 95) is a major S-acylated protein that has a critical role in the maturation of excitatory neurons and in synaptic plasticity ([46], [47]). PSD95 can be S-acylated by zDHHC2, zDHHC3, zDHHC7, and zDHHC15 ([6]). […] We therefore tested the effects of TTZ-1 and TTZ-2 on the S-acylation of PSD95 mediated by zDHHC2, zDHHC3, zDHHC7, and zDHHC15. […] In contrast, zDHHC3 and zDHHC7 activities toward PSD95 were unaffected by TTZ-1 and TTZ-2, mirroring the data obtained with GFP-SNAP25 as a substrate.
Figure 9 Activity of TTZ-1 and TTZ-2 against PSD95 S-acylation mediated by human zDHHC2, zDHHC3, zDHHC7, and zDHHC15 expressed in mammalian cells. HEK293T cells were transfected with a plasmid encoding PSD95-mCHERRY together with either a control plasmid pEF-BOS-HA (pEF) or a plasmid encoding either HA-tagged human zDHHC2 (zD2), zDHHC3 (zD3), zDHHC7 (zD7), or zDHHC15 (zD15) for 24 h. Cells were then preincubated for 4 h with TTZ-1 or TTZ-2 (25 μM final) or DMSO control before metabolic labeling with 100 μM C16:0-azide for 4 h. Cells were lysed, and proteins having incorporated C16:0-azide were labeled by click chemistry with an alkyne-IR800 dye. […] The data were quantified, and the graphs below each set of membranes show mean ± SEM of normalized S-acylation of PSD95-mCHERRY (click signal/RFP signal). […]

Structure (SMILES)	PSD95-mCHERRY S-acylation by zDHHC3
CCCCCCCOc1ccc(C(=O)Nc2cccc3c2OC(c2nnn[nH]2)CN3)cc1 (centres unmarked) [TTZ-1, N-(2-(1H-Tetrazol-5-yl)-3,4-dihydro-2H-benzo[b][1,4]oxazin-8-yl)-4-(heptyloxy)benzamide]	unaffected
O=C(Nc1cccc2c1OC(c1nnn[nH]1)CN2)c1ccc(OCCCCc2ccccc2)cc1 (centres unmarked) [TTZ-2, N-(2-(1H-Tetrazol-5-yl)-3,4-dihydro-2H-benzo[b][1,4]oxazin-8-yl)-4-(4-phenylbutoxy)benzamide]	unaffected
